Where two headings read alike, the source gives them in different places. Marks after values point to notes of the source that are not given here.
Tests used:
Mice [1] = assay: Jumping test in mice (Narcan precipitated); assay type: in vivo; conditions: for Times for jump (IV ± SD): 3 times per day for 7 days, Narcan i.p. 2 mg/kg
Description: Sixty-four mice were divided into 4 groups (16 for each group, ? fifty-fifty) Morphine, IV-12-1 (75 mg/Kg) IV-12-2 (100 mg/Kg) and saline were administrated respectively 3 times per day for 7 days with progressive dose increase. On the 7th day, Narcan is injected (i.p. 2 mg/kg) to precipitate withdrawal. The number of times for the mice to jump was recorded and the incidence of the jump calculated.

voltage-gating channel = assay: Electrophysiology of hippocampus's pyramidal cell: voltage-gating channel; assay type: cell-based
NMDA receptor [2] = assay: Binding test with NMDA receptor; conditions: 0.1 μM, 1 μM and 10 μM
Mice [3] = assay: Mice 55° C. hot plate; assay type: in vivo; conditions: Mus musculus, po, read-out: Analgesia ED50
Description: (§1) Two species of animals (mice and rats) and four types of pain testing models (i.p. 0.7% acetic acid, s.c. 5% formalin, hot plate 55° C., focused radiant heat) were used.

NMDA receptor [4] = assay: Electrophysiology of hippocampus's pyramidal cell: NMDA-induced current; assay type: cell-based; conditions: 100 μM NMDA; read-out: IC50 of suppression of current induced by NMDA
rat [5] = assay: Rat tail flick model (focused radiant heat); assay type: in vivo
Description: A 8.75 mm-projecting lamp (12 v, 50 w) was used to give out focused radiant heat. The terminal 3 cm of the tail is exposed to the heat. The intensity of the focused radiant heat is regulated by a transformer to ensure that the time required to elicit a tail flick response is within 3-5 seconds. The rat's pain threshold is pre-tested for 2-3 times; and only animals with stable reactions were used in the pharmaceutical test. The test substance is taken orally 20 mg/kg. The number of rats whose increase in time for eliciting a tail flick response is by 100% or more at the peak of the drug action (30-45 minutes after administration) is used to calculate analgesic effect.
as §1

rat [6] = assay: Rat tail flick model (focused radiant heat); assay type: in vivo; conditions: po, read-out: Analgesia ED50
Kunming mice = assay: Mice writhing model (acetic acid); assay type: in vivo
In short: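 Mixed-sex mice received test compound at 20 mg/Kg i.p.; controls received saline p.o. (20 ml/Kg). Thirty minutes later 0.7% acetic acid (10 mg/kg i.p.) was injected, and writhes were counted over 5 minutes. Inhibition ratio was calculated relative to control.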

[7] = Summary of all three algogenic models; assay type: in vivo; conditions: in words
From the text: All the compounds mentioned above have profound for further value development.

rats [8] = assay: Precipitated withdrawal test in rats; assay type: in vivo; conditions: for Abstinence syndrome (IV ± SD): 14 days, Narcan i.p. 4 mg/kg
Description: 48 rats were divided into 4 groups (12 for each group, ? fifty-fifty). Morphines IV-12-1 (75 mg/Kg), IV-12-2 (100 mg/Kg) and saline, was administered respectively using progressive dose increase for 14 days and 3 times per day. On the 15th day, Narcan is injected (i.p. 4 mg/kg) to precipitate withdrawal. The withdrawal syndrome was observed and the rats wre weighed at 30, 60 and 120 minutes after the injection respectively.

rat [9] = assay: Rat 5% formalin paw s.c.; assay type: in vivo; conditions: p.o., read-out: Analgesia ED50
Description: as §1

Mice [10] = assay type: in vivo; conditions: 6 days training
Description: 30 mice were divided into 3 groups (10 for each group, ? fifty-fifty): IV-12-1 (1 mg/kg), IV-12-2 (5 mg/kg) and NS. Half of the mice in each group were administrated (s.c.) in the morning and 30 minutes later put into a white box (with medicine), and trained for 30 minutes; Saline is administrated (s.c.) in the afternoon and 30 minutes later put into a black box (without medicine), and trained for 30 minutes. The other half of the group are given saline in the morning and IV-12 in the afternoon, other procedures are the same as above.
The two training periods were at least 6-hour apart and training was continuous for 6 days. On the 7th day, the staying time was tested in both of the boxes.

[11] = tested on: S. typhimurium TA97, TA98, TA100 and TA102; assay: Bacterial reverse-mutation assay (Ames); assay type: cell-based; conditions: for Effect on bacterial growth: 5000 μg/plate
From the text: Strains: S. typhimurium TA97, TA98, TA100 and TA102
Results: The assay included two parts without S9 and with S9. […] For all tested doses, there was no significant increase of revertants. Ames test for of IV-12 is negative.

rats [12] = assay: Spontaneous withdrawal tests (body weight); assay type: in vivo
Description: 96 mice were divided into 4 groups (24 for each group, ? fifty-fifty), and Morphine, IV-12-1, IV-12-2, warm boiled water were administered respectively, using progressive dose increase for 7 days (i.g.) and 2 times per day. The weight of the rats after drug withdrawal was compared with the weight one day before drug withdrawal at a corresponding time (See Table 9 and 10).

Mice [13] = assay: Spontaneous activities of mice after oral IV-12; assay type: in vivo; conditions: p.o. 15 or 30 mg/kg

## Nc1ccc(CN2CCN(CC(=O)c3ccccc3)CC2)cc1 [IV-12, N^1-(4-aminobenzyl)-N^4-phenacyl piperazine]
Mice [1]; IV-12-1 (75 mg/Kg)
  Incidence for jump (%): 43.8*^## %
  Times for jump (IV ± SD): 9 ± 18
Mice [1]; IV-12-2 (100 mg/Kg)
  Incidence for jump (%): 62.5* %
  Times for jump (IV ± SD): 33 ± 40
voltage-gating channel
  Effect on voltage-gating channel: did not affect
NMDA receptor [2]
  Antagonism on Glu site of NMDA receptor: no antagonism
  Antagonism on Gly site of NMDA receptor: no antagonism
  Antagonism on ion-channel site of NMDA receptor: no antagonism
Mice [3]
  ED50: 20.6 mg/kg
NMDA receptor [4]
  IC50: 1.11 ± 1 µM
Rat [5]; 20 mg/kg, Table 5 summary
  Increase (tail flick) (%): 34%
Rat [5]; Rattus norvegicus, po, orally 20 mg/kg, read-out: increase (%) of tail flick time
  change in vivo at 20 mg/kg: 34%
Rat [5]; orally 20 mg/kg, 30-45 minutes after administration
  After (s) tail flick time: 10.05 s
Rat [6]
  ED50: 162 mg/kg
Kunming mice; 20 mg/kg, Table 5 summary
  Writhing (K i): 100
Kunming mice; Mus musculus, ip, i.p. 20 mg/Kg, acetic acid 0.7% i.p. after 30 minutes, writhes in 5 minutes, read-out: Analgesia (inhibition ratio of writhing)
  inhibition in vivo at 20 mg/kg: 100%
Kunming mice; Mus musculus, po, Mice, Acetic acid Writhing, read-out: Analgesia ED50
  ED50: 13.2 mg/kg
[7]
  Analgesic effect on all three algogenic models: powerful analgesic effects
  Sedative effect on all three algogenic models: rather significant sedative effect
Rats [8]; IV-12-1 (75 mg/Kg), 30 min after Narcan
  Percent of the lost weight (IV ± SD): −1.8 ± 1.4
Rats [8]; IV-12-1 (75 mg/Kg), 60 min after Narcan
  Percent of the lost weight (IV ± SD): −2.6 ± 1.5
Rats [8]; IV-12-1 (75 mg/Kg), 120 min after Narcan
  Percent of the lost weight (IV ± SD): −3.1 ± 1.5
Rats [8]; IV-12-1 (75 mg/Kg)
  Abstinence syndrome (IV ± SD): 4.7 ± 3.9
Rats [8]; IV-12-2 (100 mg/Kg), 30 min after Narcan
  Percent of the lost weight (IV ± SD): −3.1 ± 1.3
Rats [8]; IV-12-2 (100 mg/Kg), 60 min after Narcan
  Percent of the lost weight (IV ± SD): −3.9 ± 1.4
Rats [8]; IV-12-2 (100 mg/Kg), 120 min after Narcan
  Percent of the lost weight (IV ± SD): −4.2 ± 1.5
Rats [8]; IV-12-2 (100 mg/Kg)
  Abstinence syndrome (IV ± SD): 5.3 ± 2.1
Rat [9]
  ED50: 102 mg/kg
Mice [10]; 1 mg/kg s.c.
  Staying time in box with medicine: 496.4 ± 73.4 s
Mice [10]; 5 mg/kg s.c.
  Staying time in box with medicine: 452.8 ± 119.5 s
[11]; with S9, TA97
  Effect on bacterial growth: inhibitory effect
[11]; without S9, TA98
  Effect on bacterial growth: inhibitory effect
[11]; without S9 and with S9, TA97, TA98, TA100, TA102
  Ames test: negative
Rats [12]; IV-12-1 75 mg/kg, 138 h after withdrawal
  Weight after withdrawal compared with weight one day before withdrawal: 1.08 ± 0.06
Rats [12]; IV-12-1 (75 mg/kg), 18 h after withdrawal
  Increase (%) of weight: 3.9%
Rats [12]; IV-12-1 (75 mg/kg), 36 h after withdrawal
  Increase (%) of weight: 5.3%
Rats [12]; IV-12-1 (75 mg/kg), 60 h after withdrawal
  Weight: 258.5 ± 38 g
Rats [12]; IV-12-1 (75 mg/kg), 72 h after withdrawal
  Weight: 251.6 ± 36 g
Rats [12]; IV-12-2 100 mg/kg, 18 h after withdrawal
  Weight after withdrawal compared with weight one day before withdrawal: 1.01 ± 0.04
Rats [12]; IV-12-2 (75 mg/kg), 60 h after withdrawal
  Increase (%) of weight: 1.9%
Rats [12]; IV-12-2 (75 mg/kg), 114 h after withdrawal
  Weight: 260.1 ± 30 g
Rats [12]; IV-12-2 (75 mg/kg), 132 h after withdrawal
  Increase (%) of weight: 7.0%
Rats [12]; groups IV-12-1 and IV-12-2
  Weight after drug withdrawal (in words): did not decrease
Mice [13]
  Behaviour / spontaneous activities: quiet and suppressed from spontaneous activities

— patent publication US7332495B2 (priority 2002, dated 2008)
